Experimental data as given in patent US20240409585A1, “MACROCYCLIC IMMUNOMODULATORS” (priority 2021, published 2024).
Numbered stars: 1 amine (or outer) side, 2 acyl side, 3 side chain; on linkers, the order of the positions; unused ones are H or OH. Bridge positions count the residues as written; N and C are the ends. Square brackets hold non-standard residues; d marks the D form. Peptide text beside a SMILES is read from it. * marks the point of attachment. ξ: configuration not given here. Bip(4'-COOH) = N[C@@H](Cc1ccc(-c2ccc(C(=O)O)cc2)cc1)C(=O)O; Bip(4'-NHAc) = CC(=O)Nc1ccc(-c2ccc(C[C@H](N)C(=O)O)cc2)cc1; X6 = O=C(C[C@H](N[*:1])C(=O)[*:2])NS(=O)(=O)c1ccccc1Cl; Phe(3-CF3) = N[C@@H](Cc1cccc(C(F)(F)F)c1)C(=O)O; Ala(morpholin-4-yl) = N[C@@H](CN1CCOCC1)C(=O)O; Phe(4-CONH2) = NC(=O)c1ccc(C[C@H](N)C(=O)O)cc1; Phe(4-COOH) = N[C@@H](Cc1ccc(C(=O)O)cc1)C(=O)O; Bip = N[C@@H](Cc1ccc(-c2ccccc2)cc1)C(=O)O; Phe(3-F) = N[C@@H](Cc1cccc(F)c1)C(=O)O; Phe(3-Me) = Cc1cccc(C[C@H](N)C(=O)O)c1; Abu(3S-NH2) = C[C@H](N)[C@H](N)C(=O)O; Val(3-OH) = CC(C)(O)[C@H](N)C(=O)O; Cha = N[C@@H](CC1CCCCC1)C(=O)O; NTA = O=C(O)CN(CC(=O)O)CC(=O)*; Thr(3ξ) = CC(O)[C@H](N)C(=O)O; Carboxymethyl = O=C(O)C*; NMeA = CN[C@@H](C)C(=O)O; Nle = CCCC[C@H](N)C(=O)O; Orn = NCCC[C@H](N)C(=O)O; Dab = NCC[C@H](N)C(=O)O

Experiments:
[1] = target: T1, PE-labeled human PD-L1-Ig binding to Jurkat cell line over-expressing human PD-1 (Jurkat-PD-1) (Homo sapiens, UniProt Q15116); experiment: Jurkat-PD-1 Cell Binding High-Content Screening Assay (CBA): Method 1; conditions: Jurkat-PD-1 cells, PE-labeled PD-L1-Ig; μM; read-out: CBA Method 1 μM
T1 construct: expressed in transfected cells; host or cells: Jurkat

[2] = target: T1, PE-labeled human PD-L1-Ig binding to Jurkat cell line over-expressing human PD-1 (Jurkat-PD-1); experiment: Jurkat-PD-1 Cell Binding High-Content Screening Assay (CBA): Method 2 (presence and absence of tween-20); conditions: Jurkat-PD-1 cells, PE-labeled PD-L1-Ig 20 nM, presence or absence of tween-20 not given
Description: Jurkat-PD-1 Cell Binding High-Content Screening Assay (CBA): Method 2
Phycoerythrin (PE) was covalently linked to the Ig epitope tag of human PD-L1-Ig and fluorescently labeled PD-L1-Ig was used for binding studies with a Jurkat cell line over-expressing human PD-1 (Jurkat-PD-1). […] 100 nl of compound was added to cells followed by incubation at 37° C. for 2 hours. To interrogate potential issues with compound aggregation, compounds were tested in the presence and absence of tween-20 detergent. […] Then, 5 μl of PE-labeled PD-L1-Ig (20 nM final), diluted in DMEM supplemented with 10% fetal calf serum. […] Data was collected and processed using a Cell Insight NXT High Content Imager and associated software.

[3] = head μM, read-out: CBA Method 2 μM

T1 sequence (Q15116 25-288): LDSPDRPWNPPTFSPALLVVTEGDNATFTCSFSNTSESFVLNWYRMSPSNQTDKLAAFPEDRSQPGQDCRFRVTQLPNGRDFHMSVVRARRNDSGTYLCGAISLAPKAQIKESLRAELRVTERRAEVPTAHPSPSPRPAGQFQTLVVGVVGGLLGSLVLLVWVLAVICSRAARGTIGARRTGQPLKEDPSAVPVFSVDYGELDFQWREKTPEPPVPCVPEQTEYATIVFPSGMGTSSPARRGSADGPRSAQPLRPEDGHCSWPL

Compound | IC50 [1] [µM] | IC50 [2, 3] [µM] | IC50 ([2]; nM, read-out: CBA Method 2) [µM]
Cc1cccc(C[C@@H]2NC(=O)[C@H](CC(=O)O)NC(=O)[C@H](Cc3ccc(OCC(=O)O)cc3)NC(=O)[C@H](C(C)O)NC(=O)CSC[C@@H](C(=O)N[C@@H](CCN)C(N)=O)NC(=O)[C@H](CO)NC(=O)[C@H](C(C)(C)O)NC(=O)[C@H](CC3CCCCC3)NC(=O)[C@H](CCN)NC(=O)[C@@H](CC(C)C)NC(=O)[C@H](C)N(C)C(=O)[C@H](Cc3ccc(C(N)=O)cc3)NC(=O)[C@H](Cc3ccc(-c4ccccc4)cc3)NC(=O)[C@H](Cc3ccc(OCC(=O)O)cc3)NC2=O)c1 (stereo partly drawn) [Example 5067] ({CH2CO}-[Thr(3ξ)]Y(Carboxymethyl)D[Phe(3-Me)]Y(Carboxymethyl)[Bip][Phe(4-CONH2)][NMeA][dL][Dab][Cha][Val(3-OH)]SC[Dab]-NH2; thioether N-14) | 0.0072 | 0.0069 | –
CC(=O)Nc1ccc(-c2ccc(C[C@@H]3NC(=O)[C@H](Cc4cccc(C)c4)NC(=O)[C@H](CC(=O)O)NC(=O)[C@H](Cc4ccc(OCC(=O)O)cc4)NC(=O)[C@H](C(C)O)NC(=O)CSC[C@@H](C(=O)N[C@@H](CCN)C(N)=O)NC(=O)[C@H](CO)NC(=O)[C@H](C(C)(C)O)NC(=O)[C@H](CC4CCCCC4)NC(=O)[C@H](CCN)NC(=O)[C@@H](CC(C)C)NC(=O)[C@H](C)N(C)C(=O)[C@H](Cc4ccc(C(N)=O)cc4)NC(=O)[C@H](Cc4ccc(-c5ccccc5)cc4)NC3=O)cc2)cc1 (stereo partly drawn) [Example 5071] ({CH2CO}-[Thr(3ξ)]Y(Carboxymethyl)D[Phe(3-Me)][Bip(4'-NHAc)][Bip][Phe(4-CONH2)][NMeA][dL][Dab][Cha][Val(3-OH)]SC[Dab]-NH2; thioether N-14) | 0.0322 | 0.0261 | –
CC(C)C[C@H]1NC(=O)[C@H](C)N(C)C(=O)[C@H](CCC(N)=O)NC(=O)[C@H](Cc2ccc(-c3ccccc3)cc2)NC(=O)[C@H](Cc2ccc(C(=O)O)cc2)NC(=O)[C@H](Cc2cccc(C(F)(F)F)c2)NC(=O)[C@H](CC(=O)NS(=O)(=O)c2ccccc2Cl)NC(=O)[C@H](Cc2ccc(C(=O)O)cc2)NC(=O)[C@H](CN2CCOCC2)NC(=O)CSC[C@@H](C(=O)N[C@@H](CCN)C(N)=O)NC(=O)[C@H](CCCN)NC(=O)[C@H](C(C)C)NC(=O)[C@H](CC2CCCCC2)NC(=O)[C@H](CCN)NC1=O [Example 5080] ({CH2CO}-[Ala(morpholin-4-yl)][Phe(4-COOH)][X6][Phe(3-CF3)][Phe(4-COOH)][Bip]Q[NMeA][dL][Dab][Cha]V[Orn]C[Dab]-NH2; thioether N-14) | 0.224 | 0.332 | –
CC(=O)Nc1ccc(-c2ccc(C[C@@H]3NC(=O)[C@H](Cc4cccc(C(F)(F)F)c4)NC(=O)[C@H](CC(=O)O)NC(=O)[C@H](Cc4ccc(C(=O)O)cc4)NC(=O)[C@H](CN4CCOCC4)NC(=O)CSC[C@@H](C(=O)N[C@@H](CCN)C(N)=O)NC(=O)[C@H](CCCN)NC(=O)[C@H](C(C)C)NC(=O)[C@H](CC4CCCCC4)NC(=O)[C@H](CCN)NC(=O)[C@@H](CC(C)C)NC(=O)[C@H](C)N(C)C(=O)[C@H](CCC(N)=O)NC(=O)[C@H](Cc4ccc(-c5ccccc5)cc4)NC3=O)cc2)cc1 [Example 5047] ({CH2CO}-[Ala(morpholin-4-yl)][Phe(4-COOH)]D[Phe(3-CF3)][Bip(4'-NHAc)][Bip]Q[NMeA][dL][Dab][Cha]V[Orn]C[Dab]-NH2; thioether N-14) | 0.0052 | 0.0041 | –
CCCC[C@@H]1NC(=O)CSC[C@@H](C(=O)N[C@@H](CCN)C(N)=O)NC(=O)[C@H](CC(N)=O)NC(=O)[C@H](C(C)C)NC(=O)[C@H](CC2CCCCC2)NC(=O)[C@H](CCN)NC(=O)[C@@H](CC(C)C)NC(=O)[C@H](C)N(C)C(=O)[C@H](CCCN)NC(=O)[C@H](Cc2ccc(-c3ccccc3)cc2)NC(=O)[C@H](Cc2ccc(-c3ccc(C(=O)O)cc3)cc2)NC(=O)[C@H](Cc2cccc(C(F)(F)F)c2)NC(=O)[C@H](CC(=O)O)NC(=O)[C@H](Cc2ccc(-c3ccc(C(=O)O)cc3)cc2)NC1=O [Example 5090] ({CH2CO}-[Nle][Bip(4'-COOH)]D[Phe(3-CF3)][Bip(4'-COOH)][Bip][Orn][NMeA][dL][Dab][Cha]VNC[Dab]-NH2; thioether N-14) | 0.01 | – | 0.0087
CCCC[C@@H]1NC(=O)CSC[C@@H](C(=O)N[C@@H](CCN)C(N)=O)NC(=O)[C@H](CO)NC(=O)[C@H](C(C)(C)O)NC(=O)[C@H](CC2CCCCC2)NC(=O)[C@H](CCN)NC(=O)[C@@H](CC(C)C)NC(=O)[C@H](C)N(C)C(=O)[C@H](Cc2ccc(C(N)=O)cc2)NC(=O)[C@H](Cc2ccc(-c3ccccc3)cc2)NC(=O)[C@H](Cc2ccc(OCC(=O)O)cc2)NC(=O)[C@H](Cc2cccc(C)c2)NC(=O)[C@H](CC(=O)O)NC(=O)[C@H](Cc2ccc(OCC(=O)O)cc2)NC1=O [Example 5065] ({CH2CO}-[Nle]Y(Carboxymethyl)D[Phe(3-Me)]Y(Carboxymethyl)[Bip][Phe(4-CONH2)][NMeA][dL][Dab][Cha][Val(3-OH)]SC[Dab]-NH2; thioether N-14) | 0.0077 | 0.006 | –
CC(=O)Nc1ccc(-c2ccc(C[C@@H]3NC(=O)[C@H](Cc4cccc(C)c4)NC(=O)[C@H](CC(=O)O)NC(=O)[C@H](Cc4ccc(C(=O)O)cc4)NC(=O)[C@H](CC(C)C)NC(=O)CSC[C@@H](C(=O)N[C@@H](CCN)C(N)=O)NC(=O)[C@H](CCCN)NC(=O)[C@H](C(C)C)NC(=O)[C@H](CC4CCCCC4)NC(=O)[C@H](CCN)NC(=O)[C@@H](CC(C)C)NC(=O)[C@H](C)N(C)C(=O)[C@H](CCC(N)=O)NC(=O)[C@H](Cc4ccc(-c5ccccc5)cc4)NC3=O)cc2)cc1 [Example 5054] ({CH2CO}-L[Phe(4-COOH)]D[Phe(3-Me)][Bip(4'-NHAc)][Bip]Q[NMeA][dL][Dab][Cha]V[Orn]C[Dab]-NH2; thioether N-14) | 0.0053 | 0.0057 | –
CC(=O)Nc1ccc(-c2ccc(C[C@@H]3NC(=O)[C@H](Cc4cccc(C(F)(F)F)c4)NC(=O)[C@H](CC(=O)O)NC(=O)[C@H](Cc4ccc(C(=O)O)cc4)NC(=O)[C@H]([C@H](C)N)NC(=O)CSC[C@@H](C(=O)N[C@@H](CCN)C(N)=O)NC(=O)[C@H](CCC(N)=O)NC(=O)[C@H](C(C)C)NC(=O)[C@H](CC4CCCCC4)NC(=O)[C@H](CCN)NC(=O)[C@@H](CC(C)C)NC(=O)[C@H](C)N(C)C(=O)[C@H](Cc4ccc(C(N)=O)cc4)NC(=O)[C@H](Cc4ccc(-c5ccccc5)cc4)NC3=O)cc2)cc1 [Example 5073] ({CH2CO}-[Abu(3S-NH2)][Phe(4-COOH)]D[Phe(3-CF3)][Bip(4'-NHAc)][Bip][Phe(4-CONH2)][NMeA][dL][Dab][Cha]VQC[Dab]-NH2; thioether N-14) | 0.0059 | 0.005 | –
CC(=O)Nc1ccc(-c2ccc(C[C@@H]3NC(=O)[C@H](Cc4cccc(C)c4)NC(=O)[C@H](CC(=O)O)NC(=O)[C@H](Cc4ccc(C(=O)O)cc4)NC(=O)[C@H](CC(C)C)NC(=O)CSC[C@@H](C(=O)N[C@@H](CCN)C(N)=O)NC(=O)[C@H](CCCN)NC(=O)[C@H](C(C)C)NC(=O)[C@H](Cc4cccc(F)c4)NC(=O)[C@H](CCN)NC(=O)[C@@H](CC(C)C)NC(=O)[C@H](C)N(C)C(=O)[C@H](CCC(N)=O)NC(=O)[C@H](Cc4ccc(-c5ccccc5)cc4)NC3=O)cc2)cc1 [Example 5055] ({CH2CO}-L[Phe(4-COOH)]D[Phe(3-Me)][Bip(4'-NHAc)][Bip]Q[NMeA][dL][Dab][Phe(3-F)]V[Orn]C[Dab]-NH2; thioether N-14) | 0.0385 | 0.0321 | –
CC(C)C[C@H]1NC(=O)[C@H](C)N(C)C(=O)[C@H](CCC(N)=O)NC(=O)[C@H](Cc2ccc(-c3ccccc3)cc2)NC(=O)[C@H](Cc2ccc(C(=O)O)cc2)NC(=O)[C@H](Cc2cccc(C(F)(F)F)c2)NC(=O)[C@H](CCNC(=O)CN(CC(=O)O)CC(=O)O)NC(=O)[C@H](Cc2ccc(C(=O)O)cc2)NC(=O)[C@H](CN2CCOCC2)NC(=O)CSC[C@@H](C(=O)N[C@@H](CCN)C(N)=O)NC(=O)[C@H](CCCN)NC(=O)[C@H](C(C)C)NC(=O)[C@H](CC2CCCCC2)NC(=O)[C@H](CCN)NC1=O [Example 5076] ({CH2CO}-[Ala(morpholin-4-yl)][Phe(4-COOH)][Dab](NTA)[Phe(3-CF3)][Phe(4-COOH)][Bip]Q[NMeA][dL][Dab][Cha]V[Orn]C[Dab]-NH2; thioether N-14) | 0.463 | 0.111 | –
CCCC[C@@H]1NC(=O)CSC[C@@H](C(=O)N[C@@H](CCN)C(N)=O)NC(=O)[C@H](CCC(=O)O)NC(=O)[C@H](C(C)C)NC(=O)[C@H](CC2CCCCC2)NC(=O)[C@H](CCN)NC(=O)[C@@H](CC(C)C)NC(=O)[C@H](C)N(C)C(=O)[C@H](Cc2ccc(OCC(=O)O)cc2)NC(=O)[C@H](Cc2ccc(-c3ccccc3)cc2)NC(=O)[C@H](Cc2ccc(OCC(=O)O)cc2)NC(=O)[C@H](Cc2cccc(C(F)(F)F)c2)NC(=O)[C@H](CC(=O)O)NC(=O)[C@H](Cc2ccc(-c3ccc(C(=O)O)cc3)cc2)NC1=O [Example 5074] ({CH2CO}-[Nle][Bip(4'-COOH)]D[Phe(3-CF3)]Y(Carboxymethyl)[Bip]Y(Carboxymethyl)[NMeA][dL][Dab][Cha]VEC[Dab]-NH2; thioether N-14) | 0.0401 | 0.0267 | –
